Results published in ChEMBL document CHEMBL1240317, “Probing cell-division phenotype space and Polo-like kinase function using small molecules” (Nat Chem Biol, 2006).
Activity calls are given as the source filed them.

How the values were obtained:
BSC-1 [1] = test: Induction of severe microtubule disruption in african green monkey BSC1 cells at 20 uM after 4 hrs by immunocytochemistry; assay type: functional, cell-based; conditions: Chlorocebus aethiops
BSC-1 [2] = test: Induction of reduced mitotic index in african green monkey BSC1 cells at 20 uM after 4 hrs by immunocytochemistry; assay type: functional, cell-based; conditions: Chlorocebus aethiops
BSC-1 [3] = test: Induction of deffects in mitotic spindle in african green monkey BSC1 cells at 20 uM after 4 hrs by immunocytochemistry; assay type: functional, cell-based; conditions: Chlorocebus aethiops
BSC-1 [4] = test: Antimitotic activity against african green monkey BSC1 cells assessed as induction of monopolar spindles at 20 uM by immunofluorescence microscopy; assay type: functional, cell-based; conditions: Chlorocebus aethiops
BSC-1 [5] = test: Antimitotic activity against african green monkey BSC1 cells assessed as induction of sphere like organization at 2.5 uM by immunofluorescence microscopy; assay type: functional, cell-based; conditions: Chlorocebus aethiops
BSC-1 [6] = test: Antimitotic activity against african green monkey BSC1 cells assessed as induction of monopolar spindles by immunofluorescence microscopy; assay type: functional, cell-based; conditions: Chlorocebus aethiops
[7] = target: T1, Serine/threonine-protein kinase PLK1 (Homo sapiens, UniProt P53350); test: Inhibition of recombinant polo-like kinase 1 activity by SDS-PAGE
[8] = target: T1, Serine/threonine-protein kinase PLK1; test: Inhibition of recombinant polo-like kinase 1 activity at 100 nM by SDS-PAGE
BSC-1 [9] = test: Induction of monopolar mitotic spindles in african green monkey BSC1 cells assessed as percentage of monopolar cells with two centrosomes at 5 uM after 4 hrs; assay type: functional, cell-based; conditions: Chlorocebus aethiops
BSC-1 [10] = test: Induction of monopolar mitotic spindles in african green monkey BSC1 cells assessed as kinesin-5 (Eg5) inhibition at 100 uM after 4 hrs; assay type: functional, cell-based; conditions: Chlorocebus aethiops
U2OS [11] = test: Induction of monopolar spindles and reduction in gamma-tubulin at the centrosomes in human U2OS cells at 25 uM after 4 hrs by immunofluorescence; assay type: functional, cell-based
U2OS [12] = test: Induction of monopolar spindles and reduction in gamma-tubulin at the centrosomes in human U2OS cells at 50 uM after 4 hrs by immunofluorescence; assay type: functional, cell-based
PtK2 [13] = test: Induction of monopolar mitotic spindles in rat kangaroo PtK2 cells expressing GFP-labeled alpha-tubulin after 4 hrs; assay type: functional, cell-based; conditions: Potorous tridactylus
PtK2 [14] = test: Induction of monopolar mitotic spindles in rat kangaroo PtK2 cells expressing GFP-labeled alpha-tubulin at 6.3 uM after 4 hrs; assay type: functional, cell-based; conditions: Potorous tridactylus
PtK2 [15] = test: Induction of mitotic index in rat kangaroo PtK2 cells expressing GFP-labeled alpha-tubulin after 4 hrs; assay type: functional, cell-based; conditions: Potorous tridactylus
PtK2 [16] = test: Inhibition of polo-like kinase 1 activity in rat kangaroo PtK2 cells expressing GFP-labeled alpha-tubulin assessed as phosphorylation of Cdc25c at centrosomes after 1 hr by quantitative immunofluorescence; assay type: cell-based; conditions: Potorous tridactylus
PtK2 [17] = test: Inhibition of polo-like kinase 1 activity in rat kangaroo PtK2 cells expressing GFP-labeled alpha-tubulin assessed as phosphorylation of Cdc25c at 6.3 uM after 1 hr by quantitative immunofluorescence; assay type: cell-based; conditions: Potorous tridactylus
PtK2 [18] = test: Inhibition of Aurora kinase activity in rat kangaroo PtK2 cells assessed as histone H3 phosphorylation at 6.3 uM after 1 hr by quantitative fluorescence; assay type: cell-based; conditions: Potorous tridactylus
PtK2 [19] = test: Antimitotic activity in rat kangaroo PtK2 cells expressing GFP-labeled alpha-tubulin in presence of monastrol assessed as cells remained in mitosis at 6 uM after 90 mins by phase-contrast microscopy; assay type: functional, cell-based; conditions: Potorous tridactylus
PtK2 [20] = test: Inhibition of polo-like kinase 1 activity in rat kangaroo PtK2 cells expressing GFP-labeled alpha-tubulin assessed as shortening of chromosome associated microtubule fibres at 6.3 uM by spinning disk confocal microscopy in presence of 20 uM MG132; assay type: cell-based; conditions: Potorous tridactylus
PtK2 [21] = test: Inhibition of polo-like kinase 1 activity in rat kangaroo PtK2 cells expressing GFP-labeled alpha-tubulin assessed as V-shaped chromosome at 6.3 uM by spinning disk confocal microscopy in presence of 20 uM MG132; assay type: cell-based; conditions: Potorous tridactylus
PtK2 [22] = test: Inhibition of polo-like kinase 1 activity in rat kangaroo PtK2 cells expressing GFP-labeled alpha-tubulin assessed as shortening of chromosome associated microtubule fibres at 20 uM by spinning disk confocal microscopy in presence of 20 uM MG132; assay type: cell-based; conditions: Potorous tridactylus
PtK2 [23] = test: Inhibition of polo-like kinase 1 activity in rat kangaroo PtK2 cells expressing GFP-labeled alpha-tubulin assessed as V-shaped chromosome at 20 uM by spinning disk confocal microscopy in presence of 20 uM MG132; assay type: cell-based; conditions: Potorous tridactylus
PtK2 [24] = test: Inhibition of polo-like kinase 1 activity in rat kangaroo PtK2 cells expressing GFP-labeled alpha-tubulin assessed as stable microtubule bundles at 6.3 uM at 20 sec time interval for 5 min by spinning disk confocal microscopy; assay type: cell-based; conditions: Potorous tridactylus
PtK2 [25] = test: Inhibition of polo-like kinase 1 activity in rat kangaroo PtK2 cells expressing GFP-labeled alpha-tubulin assessed as interkinetochore distance at 6 uM after 45 mins; assay type: cell-based; conditions: Potorous tridactylus
PtK2 [26] = test: Change in microtubule dynamics in rat kangaroo PtK2 cells expressing GFP-labeled alpha-tubulin by replacing with PLK inhibitor- free medium; assay type: functional, cell-based; conditions: Potorous tridactylus
BSC-1 [27] = test: Antimitotic activity against african green monkey BSC1 cells assessed as induction of monopolar spindles and spindle pole deffects at 20 uM by immunofluorescence microscopy; assay type: functional, cell-based; conditions: Chlorocebus aethiops

T1 sequence (P53350 whole entry): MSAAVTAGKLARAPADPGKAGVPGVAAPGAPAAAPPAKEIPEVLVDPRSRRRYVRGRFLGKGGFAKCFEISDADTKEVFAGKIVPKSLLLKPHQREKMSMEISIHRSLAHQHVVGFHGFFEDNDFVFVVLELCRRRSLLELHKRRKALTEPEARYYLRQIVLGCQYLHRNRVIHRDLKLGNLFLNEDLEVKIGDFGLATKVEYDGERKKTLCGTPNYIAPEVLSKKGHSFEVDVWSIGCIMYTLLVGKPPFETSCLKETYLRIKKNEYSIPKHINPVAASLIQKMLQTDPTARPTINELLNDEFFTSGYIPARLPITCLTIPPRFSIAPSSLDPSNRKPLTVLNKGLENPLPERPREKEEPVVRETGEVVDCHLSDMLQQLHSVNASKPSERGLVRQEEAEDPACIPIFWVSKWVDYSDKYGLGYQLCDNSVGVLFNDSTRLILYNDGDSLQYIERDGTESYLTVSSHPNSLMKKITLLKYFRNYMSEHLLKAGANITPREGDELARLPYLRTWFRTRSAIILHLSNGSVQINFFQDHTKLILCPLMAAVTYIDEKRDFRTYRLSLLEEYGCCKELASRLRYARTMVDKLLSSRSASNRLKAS

O=[N+]([O-])c1cnc(Nc2ccc3[nH]ccc3c2)nc1Nc1ccc(Cl)c(Cl)c1
Activity (BSC-1 [1]): Active | Activity (BSC-1 [2]): Active | Activity (BSC-1 [3]): Active

O=[N+]([O-])c1cnc(Nc2ccc3ncsc3c2)nc1Nc1ccc(Cl)c(Cl)c1
Activity (BSC-1 [1]): Active | Activity (BSC-1 [2]): Active | Activity (BSC-1 [3]): Active

CC(=O)Nc1ccc(Nc2ncc([N+](=O)[O-])c(Nc3ccccc3C(=O)c3ccccc3)n2)cc1
Activity (BSC-1 [2]): Active | Activity (BSC-1 [4]): Active | Activity (BSC-1 [5]): Active | EC50 (BSC-1 [6]): 5 µM | IC50 [7]: 0.9 µM | inhibition [8]: inactive | Activity (BSC-1 [9]): Active | Activity (BSC-1 [10]): Active | Activity (U2OS [11]): Active | Activity (U2OS [12]): Active | Activity (PtK2 [13]): Dose-dependent effect | Activity (PtK2 [14]): Active | Activity (PtK2 [15]): Dose-dependent effect | Activity (PtK2 [16]): Dose-dependent effect | inhibition (PtK2 [17]): Active | inhibition (PtK2 [18]): 20% | Activity (PtK2 [19]): Active | inhibition (PtK2 [20]): Active | inhibition (PtK2 [21]): Active | inhibition (PtK2 [22]): Active | inhibition (PtK2 [23]): Active | inhibition (PtK2 [24]): Active | interkinetochore distance (PtK2 [25]): 1.9 µm | Activity (PtK2 [26]): Active

CCCCNc1nc(Nc2ccc(N3CCN(C)CC3)cc2)ncc1[N+](=O)[O-]
Activity (BSC-1 [2]): Active | Activity (BSC-1 [27]): Active

CCCCNc1ncc([N+](=O)[O-])c(Nc2ccccc2C(=O)c2ccccc2)n1
Activity (BSC-1 [1]): Active | Activity (BSC-1 [2]): Active | Activity (BSC-1 [3]): Active

Clc1ccc(Nc2nccc(Nc3ccc4c(c3)OCO4)n2)cc1Cl
Activity (BSC-1 [1]): Active | Activity (BSC-1 [2]): Active | Activity (BSC-1 [3]): Active

c1ccc2cc(Nc3nccc(Nc4ccc5c(c4)OCO5)n3)ccc2c1
Activity (BSC-1 [1]): Active | Activity (BSC-1 [2]): Active | Activity (BSC-1 [3]): Active

NC(=O)c1ccccc1Nc1nc(NC2CCCCCC2)ncc1[N+](=O)[O-]
Activity (BSC-1 [1]): Active | Activity (BSC-1 [2]): Active | Activity (BSC-1 [3]): Active

CN1CCN(c2ccc(Nc3ncc([N+](=O)[O-])c(Nc4ccc(Cl)c(Cl)c4)n3)cc2)CC1
Activity (BSC-1 [1]): Active | Activity (BSC-1 [2]): Active | Activity (BSC-1 [3]): Active

CN1CCN(c2ccnc(Cl)n2)CC1
Activity (BSC-1 [1]): Active | Activity (BSC-1 [2]): Active | Activity (BSC-1 [3]): Active

O=[N+]([O-])c1cnc(NC2CCCCCC2)nc1Nc1ccc2ncsc2c1
Activity (BSC-1 [1]): Active | Activity (BSC-1 [2]): Active | Activity (BSC-1 [3]): Active

O=[N+]([O-])c1cnc(NC(CO)Cc2ccccc2)nc1Nc1ccc2ncsc2c1 (configuration not stated)
Activity (BSC-1 [1]): Active | Activity (BSC-1 [2]): Active | Activity (BSC-1 [3]): Active

NC(=O)c1ccccc1Nc1nc(NCc2cccs2)ncc1[N+](=O)[O-]
Activity (BSC-1 [1]): Active | Activity (BSC-1 [2]): Active | Activity (BSC-1 [3]): Active

O=[N+]([O-])c1cnc(Nc2ccc3ccccc3c2)nc1Nc1ccc(Cl)c(Cl)c1
Activity (BSC-1 [1]): Active | Activity (BSC-1 [2]): Active | Activity (BSC-1 [3]): Active
